Data taken from patent US4503056A, “1-(Pyridazinyl)pyrazoline derivatives” (Abbott Laboratories, priority 1982, dated 1985).

Key:
dermal Arthus reaction = assay: reverse passive Arthus reaction test; type: in vivo, Male Sprague-Dawley rats; details: rats; 100 mg/kg oral, 30 min before intradermal Anti-B.S.A.; lesion measured 4 hours later; reduction in lesion area vs control
Method: Proc. 35, 774 (1976). Each compound was administered orally to a group of four animals.
The reverse passive Arthus reaction test in rats is conducted as follows: Male Sprague-Dawley rats weighing approximately 130-160 g. are used, 4 rats per group. All animals are injected intravenously with 0.5 ml. 0.075% Bovine Serum Albumin (B.S.A.)+2% Evans Blue solution. Each rat then receives an oral dose of drug; one drug is administered per group.
Thirty minutes subsequent to drug dosing, each animal is injected intradermally with 0.05 ml. 1.44% Anti-B.S.A. into the dorsal skin. Four hours later the animals are sacrificed, the dorsal skin reflexed, and the lesion excised. Two perpendicular diameters of each lesion are measured. The average diameters of the lesions from the treated groups are compared with the average diameters from the control group to determine any drug effect.

carrageenin pleurisy = assay: modification of the carrageenin pleurisy assay (Vinegar et al.); type: in vivo; details: Dose 100 (dose unit not given); for % Inhibition, Volume exudates: reduction in accumulation of exudate volume; for % Inhibition, Cells: reduction in accumulation of leukocytes
Text: The anti-inflammatory activity of these compounds was established by using a modification of the carrageenin pleurisy assay described by Vinegar et al. Proc. Soc. Exp. Biol. Med. 143:711 (1973).

Row | Compound | % Inhibition of lesion of dermal Arthus reaction (dermal Arthus reaction) | % Inhibition, Volume exudates (carrageenin pleurisy) [%] | % Inhibition, Cells (carrageenin pleurisy) [%]
1 | NC1=NN(c2ccc(-c3cccc(Cl)c3)nn2)CC1 [1-[6'-(meta-chlorophenyl)pyridazin-3'-yl]-3-aminopyrazol-2-ene] | 51% | – | –
2 | NC1=NN(c2ccc(-c3ccccc3Cl)nn2)CC1 [1-[6'-(ortho-chlorophenyl)-pyridazin-3'-yl]-3-aminopyrazol-2-ene] | 58% | – | –
3 | NC1=NN(c2ccc(-c3ccccc3)nn2)CC1 [1-[6'-Phenylpyridazin-3'-yl]-3-aminopyrazol-2-ene] | 65% | 73 | 51
4 | CC1CC(N)=NN1c1ccc(-c2ccccc2)nn1 (stereo not drawn) [1-[6'-phenylpyridazin-3'-yl]-3-amino-5-methylpyrazol-2-ene] | 54% | – | –
5 | CCCCC1C(=O)N(c2ccccc2)N(c2ccccc2)C1=O [Phenylbutazone, reference compound] | inactive | 59 | 13
